Reference: patent publication US6184246A, “Inhibition of cytokine production by polymethoxylated flavones” (priority 1999, dated 2001)
Entries after “also recorded” stand apart in the source; their conditions may differ. Where two headings read alike, the source gives them in different places.

What was measured:
[1] = test system: TNFα; assay: TNFα production by LPS-stimulated human monocytes (ELISA); assay type: cell-based; conditions: for inhibition of TNFα production (in words): LPS-stimulated human monocytes; for IC50: read-out: IC50 for inhibition of TNFα production
Experimental: Isolation of human peripheral blood monocytes: Peripheral blood mononuclear cells (PBMCs) were isolated from residual source leukocytes (Bonfils Blood Center, CO) by density gradient centrifugation using Ficoll-Paque Plus (Pharmacia, Sweden).
(§1) To measure the impact of the flavones on cytokine production, PBMCs were resuspended to 4×10^6 /mL in complete medium, i.e., Dulbecco's Modified Eagle Medium containing 30% FCS, 2 mM glutamine, 100 U/mL Penicillin-G, and 100 μg/mL streptomycin. […] Nonadherent cells (lymphocytes) were separated from the plastic adherent cells (monocytes) by washing the wells twice with 200 μL of medium. The monocytes were cultured an additional 30 min in 100 μL of complete medium containing graded concentrations of the compound of interest and the cultures were then adjusted to contain […] LPS to stimulate cytokine production. Culture supernatants were harvested 14 h later, and cells were lysed by addition of 50 μL of Dulbecco's phosphate buffered saline containing 1% NP40. Culture supernatants were evaluated for TNFα, IL-1β, IL-6, IL-8, IL-10, and MIP-1α content using specific enzyme-linked immunosorbent assays (ELISA) purchased from R&D Systems. IL-1β was measured in cell lysates by ELISA. Lactate dehydrogenase (LDH) content of cell lysates was measured to determine compound effects on cell viability: To 50 μL of lysate were added 200 μL of 50 mM sodium pyrophosphate buffer (pH 8.9) containing 50 mM lactic acid and 4 mg/mL β-nicotinamide adenine dinucleotide (Sigma); rates of reduction of nicotinamide adenine dinucleotide were measured at room temperature at 340 nm.

[2] = test system: human monocytes; assay: Cytotoxicity by LDH content of monocyte lysates
Experimental: as §1

[3] = test system: type-IV phosphodiesterase semi-purified from U937 cells; assay: Phosphodiesterase cAMP SPA enzyme assay; assay type: biochemical; conditions: hydrolysis of cAMP; read-out: concentration inhibiting phosphodiesterase activity 50%
Experimental: PDE semipurified from U937 monocytic cells was evaluated for the ability to catalyze the hydrolysis of cAMP in the presence of graded concentrations of flavone, myricetin, and HMF as described below. The rates are plotted as percent of control-reactions, where no flavonoids were present. Testing flavones as phosphodiesterase inhibitors and inducers of cellular cyclic adenosine monophosphate (cAMP): The Phosphodiesterase cAMP SPA Enzyme Assay (Amersham, Arlington Heights, Ill.) was used to test the ability of flavones to inhibit cAMP hydrolysis catalyzed by phosphodiesterase. The phosphodiesterase used in this study was semi-purified from U937 cells, and was determined to be mostly the type-IV isoform based on sensitivity to selected isoform inhibitors (Trophy, T. J., J. Pharmacol. Experimental Therapeutics, 1195-1205 (1992)).

[4] = test system: intracellular cAMP; assay: Cellular cAMP in human monocytes (EIA); assay type: cell-based; conditions: 30 min; for intracellular cAMP level: media alone 2.7±0.9
Experimental: To test flavones for the ability to cause an increase in cellular cAMP, monocytes were purified from PBMC by centrifugal elutriation. Monocytes were resuspended to 5×10^6 /mL in complete medium and 2 mL cell suspension were dispensed into FALCON 17×100 mm polypropylene culture tubes (Becton Dickinson). The cells were precultured 2 h at 37° C. and 5% CO2, and then cultured an additional 30 min following adjusting culture media to contain 100 μM of the flavone of interest or 200 μM IBMX (3-isobutyl-1-methylxanthine). Cells were then collected by centrifugation, lysed in 300 μL of ice cold aqueous solution containing 10 mM HEPES (pH 7.6) and 1% NP40. The lysates were applied to 100 mg columns of Amprep SAX resin (Amersham). The columns were then rinsed with 1 mL of methanol and the cAMP was eluted in 600 μL of methanol containing 0.01 M HCl. The eluates were chilled on dry ice and dried under vacuum. The Amersham Biotrak cAMP EIA assay was used to measure cAMP content of residues resuspended in 400 μL of assay buffer.

[5] = test system: TNFα; conditions: mice, cited from earlier work
[6] = test system: IL-10; assay: IL-10 production by LPS-stimulated human monocytes (ELISA); assay type: cell-based; conditions: LPS-stimulated human monocytes
Experimental: (§2) Adherent purified human monocytes were cultured in the presence of graded concentrations of heptamethoxyflavone for 30 min. The monocyte cultures were then adjusted to contain 20 ng/mL LPS. After 14 h of culture, the cytokines TNFα, IL-6, IL-8, MIP-1α, and IL-10 were assayed in the culture supernatants and IL-1β was assayed in the cell lysates using specific ELISA assays as described below. Values expressed as the percent of cytokine produced in flavone-free cultures are the means and standard errors determined using monocytes isolated from three independent donors.
(§3) Isolation of human peripheral blood monocytes: Peripheral blood mononuclear cells (PBMCs) were isolated from residual source leukocytes (Bonfils Blood Center, CO) by density gradient centrifugation using Ficoll-Paque Plus (Pharmacia, Sweden). Monocytes were purified further by plastic adherence (see below) or by centrifugal elutriation as described previously (Manthey, C. L., et al., J. Leuk Biol., 64: 409-416 (1998)).
(§4) IL-1β was measured in cell lysates by ELISA.

[7] = test system: IL-1β; assay: IL-1β production by LPS-stimulated human monocytes (ELISA, cell lysates); assay type: cell-based; conditions: cytokine suppression profile, HMF compared against IBMX (Table 2)
Experimental: as §2, §3, §4

[8] = test system: IL-6; assay: IL-6 production by LPS-stimulated human monocytes (ELISA); assay type: cell-based; conditions: cytokine suppression profile, HMF compared against IBMX (Table 2)
Experimental: as §2, §3, §4

[9] = test system: IL-8; assay: IL-8 production by LPS-stimulated human monocytes (ELISA); assay type: cell-based; conditions: cytokine suppression profile, HMF compared against IBMX (Table 2)
Experimental: as §2, §3, §4

[10] = human monocytes, LDH content of cell lysates
[11] = Monocyte, human monocytes, 30 min preculture with compound, LPS, 14 h, 30% FCS
[12] = human monocytes, 30 min preculture with compound, LPS, 14 h, 30% FCS

| Molecule | inhibition of TNFα production (in words) [1] | cytotoxicity towards cultured human monocytes (depletion of cellular LDH activity) [2, 10] | cytotoxicity towards cultured human monocytes (depletion of cellular LDH activity) [2] | other results |
| --- | --- | --- | --- | --- |
| O=C1CC(c2ccccc2)Oc2ccccc21 (centres unmarked) [flavanone] | lacked activity | lacked activity and any associated cytotoxicity | – | – |
| CC1OC(OCC2OC(Oc3c(-c4ccc(O)cc4)oc4cc(OC5OC(C)C(O)C(O)C5O)cc(O)c4c3=O)C(O)C(O)C2O)C(O)C(O)C1O (centres unmarked) [robinin] | lacked activity | lacked activity and any associated cytotoxicity | – | – |
| O=c1cc(-c2ccccc2)oc2cc(O)cc(O)c12 [chrysin] | lacked activity | lacked activity and any associated cytotoxicity | – | – |
| COc1ccc(-c2cc(=O)c3c(O)cc(O[C@@H]4O[C@H](CO[C@@H]5O[C@@H](C)[C@H](O)[C@@H](O)[C@H]5O)[C@@H](O)[C@H](O)[C@H]4O)cc3o2)cc1O [diosmin] | – | no cytotoxicity | – | IC50 [1, 11]: > 200 µM |
| O=c1c(O)c(-c2ccccc2)oc2ccccc12 [3-hydroxyflavone] | lacked activity | – | lacked activity and any associated cytotoxicity | – |
| Oc1cc(O)c2c(c1)OC(c1ccc(O)c(O)c1)C(O)C2 (centres unmarked) [catechin] | lacked activity | lacked activity and any associated cytotoxicity | – | – |
| O=c1c(O)c(-c2cc(O)c(O)c(O)c2)oc2cc(O)cc(O)c12 [myricetin] | lacked activity; also recorded: much less active | lacked activity and any associated cytotoxicity | – | IC50 [3]: 16 µM; increase of monocyte cAMP levels over media alone (in words) ([4]; 100 μM): much less; intracellular cAMP level ([4]; 100 μM): 3.7±1.0 pmol/10^7 cells |
| margaretin | – | – | no cytotoxicity | IC50 [1, 12]: > 200 µM |
| O=c1c(O)c(-c2ccc(O)cc2)oc2cc(O)ccc12 [3,4,7-trihydroxyflavone] | lacked activity | – | lacked activity and any associated cytotoxicity | – |
| O=c1c(O)c(-c2ccc(O)c(O)c2)oc2cc(O)ccc12 [fisetin] | lacked activity | lacked activity and any associated cytotoxicity | – | – |
| O=C1C[C@@H](c2ccc(O)c(O)c2)Oc2cc(O)cc(O)c21 [eriodictyol] | lacked activity | – | lacked activity and any associated cytotoxicity | – |
| O=c1cc(-c2ccccc2)oc2cc(O)ccc12 [7-hydroxyflavone] | lacked activity | lacked activity and any associated cytotoxicity | – | – |
| COc1ccc([C@@H]2CC(=O)c3c(O)cc(O[C@@H]4O[C@H](CO[C@@H]5O[C@@H](C)[C@H](O)[C@@H](O)[C@H]5O)[C@@H](O)[C@H](O)[C@H]4O)cc3O2)cc1O [hesperidin] | – | – | no cytotoxicity | IC50 ([1]; Homo sapiens, Monocyte): > 200 µM |
| isomargaretin | – | – | no cytotoxicity | IC50 [1, 12]: > 200 µM |
| C[C@@H]1O[C@@H](O[C@H]2[C@H](Oc3cc(O)c4c(c3)O[C@H](c3ccc(O)cc3)CC4=O)O[C@H](CO)[C@@H](O)[C@@H]2O)[C@H](O)[C@H](O)[C@H]1O [naringin] | – | – | no cytotoxicity | IC50 [1, 11]: > 200 µM; liver injury ([5]; lipopolysaccharide-induced): suppress; lipopolysaccharide-induced TNFα release [5]: suppress |
| Oc1cc(O)c2c(c1)O[C@H](c1ccc(O)c(O)c1)[C@H](O)C2 [epicatechin] | lacked activity | – | lacked activity and any associated cytotoxicity | – |
| O=c1cc(-c2ccccc2)oc2cc(O)c(O)c(O)c12 [baicalein] | lacked activity | – | lacked activity and any associated cytotoxicity | – |
| O=c1c(O)c(-c2ccc(O)c(O)c2)oc2c(O)c(O)cc(O)c12 [gossypetin] | lacked activity | lacked activity and any associated cytotoxicity | – | – |
| O=c1cc(-c2ccccc2)oc2ccccc12 [flavone] | much less active | – | – | IC50 [3]: 11 µM; increase of monocyte cAMP levels over media alone (in words) ([4]; 100 μM): much less; intracellular cAMP level ([4]; 100 μM): 3.6±1.1 pmol/10^7 cells |
| C[C@@H]1O[C@@H](OC[C@H]2O[C@@H](Oc3cc(O)c4c(c3)O[C@H](c3ccc(O)cc3)CC4=O)[C@H](O)[C@@H](O)[C@@H]2O)[C@H](O)[C@H](O)[C@H]1O [narirutin] | – | – | no cytotoxicity | IC50 [1, 11]: > 200 µM |
| O=c1cc(-c2ccc(O)cc2)oc2cc(O)c([C@@H]3O[C@H](CO)[C@@H](O)[C@H](O)[C@H]3O)c(O)c12 [isovitexin] | – | – | no cytotoxicity | IC50 [1, 11]: > 200 µM |
| O=c1c(O)c(-c2ccccc2)oc2cc(O)cc(O)c12 [galagin] | lacked activity | lacked activity and any associated cytotoxicity | – | – |
| O=c1cc(-c2ccc(O)cc2)oc2ccc(O)c(O)c12 [4,5,6-trihydroxyflavone] | lacked activity | – | lacked activity and any associated cytotoxicity | – |
| COc1ccc([C@@H]2CC(=O)c3c(O)cc(O)cc3O2)cc1O [hesperetin] | lacked activity | – | lacked activity and any associated cytotoxicity | – |
| COc1ccc(-c2cc(=O)c3c(OC)c(OC)c(OC)cc3o2)cc1 [tetra-O-methylscutellarein] | – | exception | – | – |
| CC(C)Cn1c(=O)n(C)c(=O)c2[nH]cnc21 [IBMX, 3-isobutyl-1-methylxanthine] | – | – | – | inhibition of IL-10 production (in words) [6]: did not inhibit; suppression of IL-1β production [7]: neither suppressed; suppression of IL-6 production [8]: neither suppressed; suppression of IL-8 production [9]: neither suppressed; increase of monocyte cAMP levels over media alone (in words) ([4]; 200 μM): at least a doubling; intracellular cAMP level ([4]; 200 μM): 8.3±1.9 pmol/10^7 cells |
